From patent US9938273B2 (Plexxikon Inc., priority 2015, dated 2018)
pIC50: −log10 of the molar value.

Legend:
[1] = test system: MOLM-14 F691L cells, FLT3 ITD and FLT3 F691L; experiment: Cell proliferation assay (CellTiter-Glo), MOLM-14 F691L; assay type: cell-based; settings: Homo sapiens, 72 h, 3d-Growth, GMean
Method in brief: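 Three-day growth at 37 °C, 5% CO2 under compound (1 μM top final, 1:3 dilutions, eight points, 0.2% DMSO), read as ATP luminescence by CellTiter-Glo for IC50. Cells: MOLM-14 with FLT3 ITD plus D835Y or F691L, and IL-3-deprived Ba/F3 transfected with FLT3 ITD/D835Y, 1×10^4 per well.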

FLT3-ITD = target: T1, FLT3-ITD (Homo sapiens, UniProt P36888); experiment: AlphaScreen kinase assay with recombinant enzyme, FLT3-ITD; assay type: biochemical; settings: 8pt; read-out: FLT3_ITD 8pt: IC50
T1 sequence (P36888 1-993): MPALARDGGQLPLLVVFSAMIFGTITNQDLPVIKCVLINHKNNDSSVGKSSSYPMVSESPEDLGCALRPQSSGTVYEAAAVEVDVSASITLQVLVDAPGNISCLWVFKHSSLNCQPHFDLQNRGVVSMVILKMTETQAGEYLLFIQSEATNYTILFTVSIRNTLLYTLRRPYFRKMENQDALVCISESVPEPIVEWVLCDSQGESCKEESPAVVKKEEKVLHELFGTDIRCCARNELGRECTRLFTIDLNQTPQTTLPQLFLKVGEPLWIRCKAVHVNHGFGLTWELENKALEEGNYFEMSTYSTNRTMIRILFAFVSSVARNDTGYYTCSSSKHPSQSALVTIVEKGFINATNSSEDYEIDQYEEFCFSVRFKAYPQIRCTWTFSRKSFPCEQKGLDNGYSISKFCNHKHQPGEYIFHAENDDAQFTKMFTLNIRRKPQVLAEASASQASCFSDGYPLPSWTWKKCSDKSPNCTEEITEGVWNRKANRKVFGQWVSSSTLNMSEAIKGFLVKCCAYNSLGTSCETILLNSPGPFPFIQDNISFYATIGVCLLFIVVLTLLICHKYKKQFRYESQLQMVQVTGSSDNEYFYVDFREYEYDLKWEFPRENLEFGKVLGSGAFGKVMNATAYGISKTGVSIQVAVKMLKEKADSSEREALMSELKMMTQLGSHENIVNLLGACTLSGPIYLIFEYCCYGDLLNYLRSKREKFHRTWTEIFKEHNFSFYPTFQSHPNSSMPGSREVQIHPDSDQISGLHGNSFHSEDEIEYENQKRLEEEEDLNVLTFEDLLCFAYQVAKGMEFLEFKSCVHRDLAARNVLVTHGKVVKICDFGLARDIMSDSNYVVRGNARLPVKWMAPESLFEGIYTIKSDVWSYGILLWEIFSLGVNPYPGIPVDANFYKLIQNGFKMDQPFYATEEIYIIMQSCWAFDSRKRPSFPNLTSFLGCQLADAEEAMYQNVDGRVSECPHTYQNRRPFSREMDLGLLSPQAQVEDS
Method in brief: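 Tyrosine phosphorylation of biotin-poly(Glu4-Tyr) substrate by recombinant enzyme is detected with PY20 acceptor and streptavidin donor beads after room-temperature incubations of 20 and 60 min. IC50 values were derived at a final 10 μM (FLT3-D835Y, FLT3-ITD) or 100 μM (c-KIT).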

pIC50 [1] | pIC50 (FLT3-ITD) | SMILES
5.00 to 10.00 | – | C#Cc1cc2cc(-c3cccc(S(=O)(=O)NC4CC4)c3)cnc2[nH]1 [Compound P-0004, N-cyclopropyl-3-(2-ethynyl-1H-pyrrolo[2,3-b]pyridin-5-yl)benzenesulfonamide]
5.00 to 10.00 | – | CN(C)CC#Cc1cc2cc(-c3cccc(S(=O)(=O)NC4CC4)c3)cnc2[nH]1 [Compound P-0009, N-cyclopropyl-3-[2-[3-(dimethylamino)prop-1-ynyl]-1H-pyrrolo[2,3-b]pyridin-5-yl]benzenesulfonamide]
5.00 to 10.00 | – | O=S(=O)(NC1CC1)c1cccc(-c2cnc3[nH]c(C#CC4CCCCC4)cc3c2)c1 [Compound P-0010, 3-[2-(2-cyclohexylethynyl)-1H-pyrrolo[2,3-b]pyridin-5-yl]-N-cyclopropyl-benzenesulfonamide]
5.00 to 10.00 | 5.00 to 10.00 | CNC1CCN(C(=O)c2cccc(-c3cnc4[nH]c(-c5cn(C)nc5C)cc4c3)n2)C1 (centres unmarked) [Compound P-0049, [6-[2-(1,3-dimethylpyrazol-4-yl)-1H-pyrrolo[2,3-b]pyridin-5-yl]-2-pyridyl]-[3-(methylamino)pyrrolidin-1-yl]methanone]
5.00 to 10.00 | 5.00 to 10.00 | c1ccc(-c2cc3cc(-c4cccc(OC5CCNCC5)n4)cnc3[nH]2)cc1 [Compound P-0050, 2-phenyl-5-[6-(4-piperidyloxy)-2-pyridyl]-1H-pyrrolo[2,3-b]pyridine]
5.00 to 10.00 | 5.00 to 10.00 | N[C@H]1CCN(C(=O)c2ncc(-c3cnc4[nH]c(-c5ccccc5)cc4c3)s2)C1 [Compound P-0054, [(3S)-3-aminopyrrolidin-1-yl]-[5-(2-phenyl-1H-pyrrolo[2,3-b]pyridin-5-yl)thiazol-2-yl]methanone]
– | 5.00 to 10.00 | NC1(C(F)(F)F)CCN(C(=O)c2cccc(-c3cnc4[nH]c(-c5ccccc5)cc4c3)n2)C1 (centres unmarked) [Compound P-0077, [3-amino-3-(trifluoromethyl)pyrrolidin-1-yl]-[6-(2-phenyl-1H-pyrrolo[2,3-b]pyridin-5-yl)-2-pyridyl]methanone]
– | 5.00 to 10.00 | CC1(N)CCN(C(=O)c2cccc(-c3cnc4[nH]c(-c5ccccc5)cc4c3)n2)C1 (centres unmarked) [Compound P-0078, (3-amino-3-methyl-pyrrolidin-1-yl)-[6-(2-phenyl-1H-pyrrolo[2,3-b]pyridin-5-yl)-2-pyridyl]methanone]
– | 5.00 to 10.00 | CNCC1CCN(C(=O)c2cccc(-c3cnc4[nH]c(-c5ccccc5)cc4c3)n2)C1 (centres unmarked) [Compound P-0079, [3-(methylaminomethyl)pyrrolidin-1-yl]-[6-(2-phenyl-1H-pyrrolo[2,3-b]pyridin-5-yl)-2-pyridyl]methanone]
5.00 to 10.00 | 5.00 to 10.00 | O=C(Nc1cccc(-c2cnc3[nH]c(-c4ccccc4)cc3c2)n1)C1CNC1 [Compound P-0084, N-[6-(2-phenyl-1H-pyrrolo[2,3-b]pyridin-5-yl)-2-pyridyl]azetidine-3-carboxamide]
5.00 to 10.00 | 5.00 to 10.00 | O=C(c1cccc(-c2cnc3[nH]c(-c4ccccc4)cc3c2)n1)N1CCC(NC2CC2)C1 (centres unmarked) [Compound P-0085, [3-(cyclopropylamino)pyrrolidin-1-yl]-[6-(2-phenyl-1H-pyrrolo[2,3-b]pyridin-5-yl)-2-pyridyl]methanone]
5.00 to 10.00 | 5.00 to 10.00 | O=S(=O)(NC1CCNCC1)c1cccc(-c2cnc3[nH]c(-c4ccccc4)cc3c2)n1 [Compound P-0086, 6-(2-phenyl-1H-pyrrolo[2,3-b]pyridin-5-yl)-N-(4-piperidyl)pyridine-2-sulfonamide]
5.00 to 10.00 | 5.00 to 10.00 | NC1CCC(NS(=O)(=O)c2cccc(-c3cnc4[nH]c(-c5ccccc5)cc4c3)n2)CC1 (centres unmarked) [Compound P-0088, N-(4-aminocyclohexyl)-6-(2-phenyl-1H-pyrrolo[2,3-b]pyridin-5-yl)pyridine-2-sulfonamide]
– | 5.00 to 10.00 | O=C(c1cccc(-c2cnc3[nH]c(-c4ccccc4)cc3c2)n1)N1CC(F)(F)C1 [Compound P-0090, (3,3-difluoroazetidin-1-yl)-[6-(2-phenyl-1H-pyrrolo[2,3-b]pyridin-5-yl)-2-pyridyl]methanone]
– | 5.00 to 10.00 | COC1CN(C(=O)c2cccc(-c3cnc4[nH]c(-c5ccccc5)cc4c3)n2)C1 [Compound P-0091, (3-methoxyazetidin-1-yl)-[6-(2-phenyl-1H-pyrrolo[2,3-b]pyridin-5-yl)-2-pyridyl]methanone]
– | 5.00 to 10.00 | CC1(C#N)CCN(C(=O)c2cccc(-c3cnc4[nH]c(-c5ccccc5)cc4c3)n2)CC1 [Compound P-0094, 4-methyl-1-[6-(2-phenyl-1H-pyrrolo[2,3-b]pyridin-5-yl)pyridine-2-carbonyl]piperidine-4-carbonitrile]
– | 5.00 to 10.00 | COC1CCN(C(=O)c2cccc(-c3cnc4[nH]c(-c5ccccc5)cc4c3)n2)CC1 [Compound P-0098, (4-methoxy-1-piperidyl)-[6-(2-phenyl-1H-pyrrolo[2,3-b]pyridin-5-yl)-2-pyridyl]methanone]
– | 5.00 to 10.00 | CS(=O)(=O)NC1CCN(C(=O)c2cccc(-c3cnc4[nH]c(-c5ccccc5)cc4c3)n2)C1 (centres unmarked) [Compound P-0101, N-[1-[6-(2-phenyl-1H-pyrrolo[2,3-b]pyridin-5-yl)pyridine-2-carbonyl]pyrrolidin-3-yl]methanesulfonamide]
– | 5.00 to 10.00 | O=C(c1cccc(-c2cnc3[nH]c(-c4ccccc4)cc3c2)n1)N1CCC(N2CCOCC2)C1 (centres unmarked) [Compound P-0102, (3-morpholinopyrrolidin-1-yl)-[6-(2-phenyl-1H-pyrrolo[2,3-b]pyridin-5-yl)-2-pyridyl]methanone]
– | 5.00 to 10.00 | O=C(c1cccc(-c2cnc3[nH]c(-c4ccccc4)cc3c2)n1)N1CCC(C(F)(F)F)C1 (centres unmarked) [Compound P-0103, [6-(2-phenyl-1H-pyrrolo[2,3-b]pyridin-5-yl)-2-pyridyl]-[3-(trifluoromethyl)pyrrolidin-1-yl]methanone]
– | 5.00 to 10.00 | CN(C)C1CCN(C(=O)c2cccc(-c3cnc4[nH]c(-c5ccccc5)cc4c3)n2)C1 (centres unmarked) [Compound P-0104, [3-(dimethylamino)pyrrolidin-1-yl]-[6-(2-phenyl-1H-pyrrolo[2,3-b]pyridin-5-yl)-2-pyridyl]methanone]
– | 5.00 to 10.00 | CC(C)(C#N)NC(=O)c1cccc(-c2cnc3[nH]c(-c4cnc(N5CCOCC5)nc4)cc3c2)n1 [Compound P-0198, N-(1-cyano-1-methyl-ethyl)-6-[2-(2-morpholinopyrimidin-5-yl)-1H-pyrrolo[2,3-b]pyridin-5-yl]pyridine-2-carboxamide]
– | 5.00 to 10.00 | CC(C)(C#N)NC(=O)c1cccc(-c2cnc3[nH]c(-c4cccc(N5CCCS5(=O)=O)c4)cc3c2)n1 [Compound P-0199, N-(1-cyano-1-methyl-ethyl)-6-[2-[3-(1,1-dioxo-1,2-thiazolidin-2-yl)phenyl]-1H-pyrrolo[2,3-b]pyridin-5-yl]pyridine-2-carboxamide]
– | 5.00 to 10.00 | CC(C)(NC(=O)c1cccc(-c2cnc3[nH]c(-c4cnn(C5CCNCC5)c4)cc3c2)n1)C(N)=O [Compound P-0200, N-(2-amino-1,1-dimethyl-2-oxo-ethyl)-6-[2-[1-(4-piperidyl)pyrazol-4-yl]-1H-pyrrolo[2,3-b]pyridin-5-yl]pyridine-2-carboxamide]
– | 5.00 to 10.00 | CC(C)(C#N)NC(=O)c1cccc(-c2cnc3[nH]c(-c4cnc(N5CCCC5)nc4)cc3c2)n1 [Compound P-0202, N-(1-cyano-1-methyl-ethyl)-6-[2-(2-pyrrolidin-1-ylpyrimidin-5-yl)-1H-pyrrolo[2,3-b]pyridin-5-yl]pyridine-2-carboxamide]
